Source: publication PMC11212140, “Molecular Bidents with Two Electrophilic Warheads as a New Pharmacological Modality” (ACS Central Science, 2024)
Like-named read-outs stand apart in the source and are kept apart here.

Assays:
[1] = system: FGFR1, FMS, PDGFRb, TYRO3; experiment: KiNativ profiling in H3255 cells; format: cell-based, human; conditions: 2.5 µM; Lys1; VAVKMLK
Method: (§1) H3255 cells were plated with 6.5x10^6 per condition in fresh media in 15 cm plates and treated the 80% confluency for 2 hours with DMSO or 2.5 μM of ZNL-0056. To harvest cells, plates were washed 3 times with cold PBS, then collected by scraping into 4 mL of cold PBS containing protease and phosphatase inhibitors. Cells were pelleted by centrifugation at 1350 g at 4 ℃ for 5 minutes and immediately frozen in liquid nitrogen. The frozen samples were sent to ActivX Biosciences (La Jolla, CA) for the remainder of the KiNativ profiling experiment4. […]
(§2) Human EGFR kinase domain (residues 696-1022) with T790M and V948R mutations was cloned with an N-terminal, protease cleavable His -GST tag. Recombinant protein was expressed in SF9 insect cells using baculovirus generated from the pFastBac system (Thermo Fisher) .
(§3) Briefly, cells at a density of ~2x10^6 cells/mL were infected with 1% (v/v) virus stock and grown for ~72 hours before harvesting and freezing the cell pellet . Infected cells were lysed in buffer A (50 mM Tris pH 8.0, 500 mM NaCl, 5% glycerol, 0.5 mM Tris(2-carboxyethyl)phosphine [TCEP]), ultracentrifuged at >200,000 rcf for 1 h, and the supernatant flo wed through Ni-NTA resin by gravity. The resin was washed with buffer A supplemented with 40 mM imidazole by […]

MET = system: T1, MET; experiment: KiNativ profiling in H3255 cells; format: cell-based, human; conditions: 2.5 µM; Activation Loop; DMYDKEYYSVHNK
T1 construct: purchased ActivX Biosciences (KiNativ)
Method: as §1, §2, §3

CDK2 = system: T2, CDK2; experiment: KiNativ profiling in H3255 cells; format: cell-based, human; conditions: 2.5 µM
T2 construct: purchased ActivX Biosciences (KiNativ)
Method: as §1, §2, §3

[2] = system: EGFR^L858R/C797S Ba/F3 cells; experiment: Antiproliferation assay (CellTiter-Glo); format: cell-based
Text: (1 picture or pasted object on this page, not shown here)
protease and phosphatase inhibitors.
Protein expression and purification

NuaK1 = system: T3, NuaK1; experiment: KiNativ profiling in H3255 cells; format: cell-based, human; conditions: 2.5 µM; Lys1; VVAIKSIR
T3 construct: purchased ActivX Biosciences (KiNativ)
Method in brief: (§4)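 We treat H3255 cultures (80% confluent) with 2.5 μM ZNL-0056 for 2 hours, alongside a DMSO control, and freeze the washed cell pellets for KiNativ kinase profiling performed by ActivX.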

NEK9 = system: T4, NEK9; experiment: KiNativ profiling in H3255 cells; format: cell-based, human; conditions: 2.5 µM
T4 construct: purchased ActivX Biosciences (KiNativ)
Method in brief: as §4

TAO2 = system: T5, TAO2; experiment: KiNativ profiling in H3255 cells; format: cell-based, human; conditions: 2.5 µM; Lys2; DVKAGNILLSEPGLVK
T5 construct: purchased ActivX Biosciences (KiNativ)
Method in brief: as §4

MSK1 domain1 = system: T6, MSK1 domain1; experiment: KiNativ profiling in H3255 cells; format: cell-based, human; conditions: 2.5 µM; Lys2; DIKLENILLDSNGHVVLTDFGLSK
T6 construct: MSK1 domain1; purchased ActivX Biosciences (KiNativ)
Method in brief: as §4

PCTAIRE2 = system: T7, PCTAIRE2; experiment: KiNativ profiling in H3255 cells; format: cell-based, human; conditions: 2.5 µM; Lys2; DLKPQNLLINEK
T7 construct: purchased ActivX Biosciences (KiNativ)
Method in brief: as §4

CaMKK2 = system: T8, CaMKK2; experiment: KiNativ profiling in H3255 cells; format: cell-based, human; conditions: 2.5 µM
T8 construct: purchased ActivX Biosciences (KiNativ)
Method in brief: as §4

CDK5 = system: T9, CDK5; experiment: KiNativ profiling in H3255 cells; format: cell-based, human; conditions: 2.5 µM
T9 construct: purchased ActivX Biosciences (KiNativ)
Method in brief: as §4

PLK1 = system: T10, PLK1; experiment: KiNativ profiling in H3255 cells; format: cell-based, human; conditions: 2.5 µM
T10 construct: purchased ActivX Biosciences (KiNativ)
Method in brief: as §4

CK1g1, CK1g2, CK1g3 = experiment: KiNativ profiling in H3255 cells; format: cell-based, human; conditions: 2.5 µM; ATP Loop; KIGCGNFGELR
Method in brief: as §4

MST1, MST2 = experiment: KiNativ profiling in H3255 cells; format: cell-based, human; conditions: 2.5 µM; Lys2; DIKAGNILLNTEGHAK
Method in brief: as §4

JNK1, JNK2, JNK3 = experiment: KiNativ profiling in H3255 cells; format: cell-based, human; conditions: 2.5 µM; Lys2; DLKPSNIVVK
Method in brief: as §4

LKB1 = system: T11, LKB1; experiment: KiNativ profiling in H3255 cells; format: cell-based, human; conditions: 2.5 µM; Lys2; DIKPGNLLLTTGGTLK
T11 construct: purchased ActivX Biosciences (KiNativ)

JAK1 domain2 = system: T12, JAK1 domain2; experiment: KiNativ profiling in H3255 cells; format: cell-based, human; conditions: 2.5 µM
T12 construct: JAK1 domain2; purchased ActivX Biosciences (KiNativ)

CDK11, CDK8 = experiment: KiNativ profiling in H3255 cells; format: cell-based, human; conditions: 2.5 µM; Lys2; DLKPANILVMGEGPER
[3] = system: panel of 468 human kinases; conditions: 1 μM
Method: KinomeScan profiling for ZNL-0056 at 1 μM against a panel of 468 human kinases. The results
for the binding interactions are reported as “% Ctrl”, where larger circles indicate stronger hits.
The selectivity score was defined as the ratio of the number of kinases inhibited to a specified
percentage versus the total number of kinases. For this experiment, specified percent inhibition

[4] = Activation Loop, IGDFGLTKAIETDKEYYTVK
[5] = Lys1, YDPEGDNTGEQVAVKSLKPESGGNHIADLKK

Row | SMILES | Inhibition [1] | Inhibition (MET) | Inhibition (CDK2; Lys1, LTGEVVALKK) | Inhibition (CDK2; Lys2, DLKPQNLLINTEGAIK) | Inhibition (NuaK1) | Inhibition (NEK9; Activation Loop, LGDYGLAKK) | Inhibition (NEK9; Lys1, RTEDDSLVVWKEVDLTR) | Inhibition (NEK9; Lys2, DIKTLNIFLTK) | Inhibition (TAO2) | Inhibition (MSK1 domain1) | Inhibition (PCTAIRE2) | Inhibition (CaMKK2; Lys1, LAYNENDNTYYAMKVLSK) | Inhibition (CaMKK2; Lys2, DIKPSNLLVGEDGHIK) | Inhibition (CDK5; Lys1, NRETHEIVALKR) | Inhibition (CDK5; Lys2, DLKPQNLLINR) | Inhibition (PLK1; Lys1, CFEISDADTKEVFAGKIVPK) | Inhibition (PLK1; Lys2, DLKLGNLFLNEDLEVK) | Inhibition (CK1g1, CK1g2, CK1g3) | Inhibition (MST1, MST2) | Inhibition (JNK1, JNK2, JNK3) | other results
1 | C=CC(=O)Nc1cc(Nc2nccc(-c3cn(C)c4ccccc34)n2)c(OC)cc1N(C)CCN(C)C [Osimertinib, osimertinib, reference compound] | 0.6% | -2.3% | 14.1% | 9.6% | 2.8% | -11.0% | -18.7% | -12.2% | 8.2% | -10.4% | 2.6% | 73.3% | 60.8% | -40.7% | 26.2% | 9.6% | 25.0% | -14.3% | 17.9% | 13.4% | activity loss in cells dependent on EGFR^C797S for growth [2]: 300 fold; Inhibition (LKB1): -3.9%; Inhibition (JAK1 domain2; [4]): -24.5%; Inhibition (JAK1 domain2; [5]): -22.2%; Inhibition (CDK11, CDK8): 24.8%
2 | C=CC(=O)Nc1cc(C(=O)Nc2nc3cccc(C)c3n2[C@@H]2CCCCN(C(=O)C=C)C2)cs1 [ZNL-0056] | -17.7% | -17.6% | 0.6% | 13.1% | 17.0% | -6.5% | 3.2% | 4.4% | -4.5% | 10.0% | -15.1% | 74.6% | 73.1% | -65.5% | 18.0% | 11.9% | -1.2% | 13.6% | 16.1% | -5.1% | activity loss in cells dependent on EGFR^C797S for growth ([2]; vs EGFR^L858R Ba/F3): 50 fold; selectivity score S (10) [3]: 0.05; Inhibition (LKB1): 0.756%; Inhibition (JAK1 domain2; [4]): 4.7%; Inhibition (JAK1 domain2; [5]): 4.4%; Inhibition (CDK11, CDK8): -0.339%
